Positions count from the first letter of the chain named.
What was measured:
Test in all cases: tryptophan fluorescence quenching
Assay type in all cases: binding
[1] = biological target: T1, GUN4 Δ1–69 (GENOMES UNCOUPLED 4) (Arabidopsis thaliana, UniProt Q9LX31)
T1 sequence (Q9LX31 70-265): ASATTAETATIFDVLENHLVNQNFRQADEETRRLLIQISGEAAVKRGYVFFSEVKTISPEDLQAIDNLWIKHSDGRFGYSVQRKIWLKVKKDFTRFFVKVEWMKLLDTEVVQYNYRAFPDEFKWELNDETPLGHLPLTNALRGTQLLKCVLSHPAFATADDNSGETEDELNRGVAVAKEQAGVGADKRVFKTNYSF

[2] = biological target: T2, GUN4 Δ1–69 (GENOMES UNCOUPLED 4) (Arabidopsis thaliana, UniProt Q9LX31, R211A)
T2 sequence (Q9LX31 70-265 R211A): T1 sequence (Q9LX31 70-265) with R142A

[3] = biological target: T3, GUN4 Δ1–69 (GENOMES UNCOUPLED 4) (Arabidopsis thaliana, UniProt Q9LX31, V123A)
T3 sequence (Q9LX31 70-265 V123A): T1 sequence (Q9LX31 70-265) with V54A

[4] = biological target: T4, GUN4 Δ1–69 (GENOMES UNCOUPLED 4) (Arabidopsis thaliana, UniProt Q9LX31, F191A)
T4 sequence (Q9LX31 70-265 F191A): T1 sequence (Q9LX31 70-265) with F122A

Structure (SMILES)	Kd [1]	Kd [2]	Kd [3]	Kd [4]
CC1=C(CCC(=O)O)c2cc3nc(cc4[nH]c(cc5[nH]c(cc1n2)c(C)c5CCC(=O)O)c(CCC(=O)O)c4C)C(CCC(=O)O)=C3C [Coproporphyrin III]	15 ± 0.82 µM	–	–	–
CC1=C(CCC(=O)O)c2cc3nc(cc4[nH]c(cc4C)cc4[nH]c(cc1n2)cc4C)C(C)=C3CCC(=O)O [DPIX]	6.4 ± 0.21 µM	14 ± 0.83 µM	9.6 ± 0.44 µM	12 ± 0.77 µM
C=CC1=C(C)C2=Cc3c(C=C)c(C)c4[n]3[Fe]([Cl])[n]3c(c(C)c(CCC(=O)O)c3=CC3=NC(=C4)C(C)=C3CCC(=O)O)=CC1=N2 [Hemin]	8.1 ± 0.75 µM	–	–	–
C=CC1=C(C)c2cc3[nH]c(cc4nc(cc5[nH]c(cc1n2)c(C)c5CCC(=O)O)C(CCC(=O)O)=C4C)c(C)c3C=C [PPIX]	11 ± 0.5 µM	–	–	–
C=Cc1c(C)c2cc3nc(c4c5[nH]c(cc6nc(cc1[nH]2)C(C)=C6CC)c(C)c5C(=O)[C@@H]4C(=O)OC)[C@@H](CCC(=O)O)[C@@H]3C [Pheophorbide a]	3.8 ± 0.33 µM	–	–	–
O=C(O)CCC1=C(CC(=O)O)c2cc3[nH]c(cc4nc(cc5[nH]c(cc1n2)c(CC(=O)O)c5CCC(=O)O)C(CCC(=O)O)=C4CC(=O)O)c(CC(=O)O)c3CCC(=O)O [Uroporphyrin III]	10 ± 0.57 µM	–	–	–

From paper PMC2757182 (The Journal of Biological Chemistry, 2009)
